PubChem BioAssay (NCI)
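96-well plates; 48 h exposure; 5 concentrations. Endpoints by linear interpolation between flanking doses. Not reached: highest tested concentration assigned. GI50 = concentration required for 50% inhibition of growth. Definition used: TGI = concentration required for complete inhibition of growth.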

How the values were obtained:
Experiment in all cases: growth of human tumour cells (NCI), 48 h
NCI-H460 lung = system: NCI-H460 lung
HT29 colon = system: HT29 colon
RXF 393 renal = system: RXF 393 renal
UACC-257 melanoma = system: UACC-257 melanoma
M14 melanoma = system: M14 melanoma
UACC-62 melanoma = system: UACC-62 melanoma
SK-OV-3 ovarian = system: SK-OV-3 ovarian
LOX IMVI melanoma = system: LOX IMVI melanoma
BT-549 breast = system: BT-549 breast
HS 578T breast = system: HS 578T breast

Structure (SMILES)	TGI (NCI-H460 lung) [µM]	TGI (HT29 colon) [µM]	TGI (RXF 393 renal) [µM]	TGI (UACC-257 melanoma) [µM]	TGI (M14 melanoma) [µM]	TGI (UACC-62 melanoma) [µM]	TGI (SK-OV-3 ovarian) [µM]	TGI (LOX IMVI melanoma) [µM]	GI50 (BT-549 breast) [µM]	TGI (BT-549 breast) [µM]	GI50 (NCI-H460 lung) [µM]	GI50 (HT29 colon) [µM]	GI50 (RXF 393 renal) [µM]	GI50 (UACC-257 melanoma) [µM]	GI50 (HS 578T breast) [µM]	TGI (HS 578T breast) [µM]	GI50 (UACC-62 melanoma) [µM]	GI50 (SK-OV-3 ovarian) [µM]	GI50 (LOX IMVI melanoma) [µM]	GI50 (M14 melanoma) [µM]
CCOC(=O)C(CCCNC(=O)OC(C)(C)C)N(Cc1ccc(OC)cc1OC)C(=O)CC(=O)CP(=O)(OCC)OCC (stereo not drawn)	> 100	> 100	> 100	> 100	> 100	> 100	> 100	> 100	–	–	–	–	–	–	–	–	–	–	–	–
Cn1c(C(=O)c2cccc3ccccc23)nc2ccccc21	> 100	> 100	> 100	> 100	–	> 100	> 100	> 100	> 100	> 100	> 100	> 100	> 100	> 100	> 100	> 100	> 100	> 100	> 100	–
C[P+]1(c2ccccc2)CCCCC1	> 100	> 100	> 100	> 100	> 100	> 100	> 100	> 100	–	–	–	–	–	–	–	–	–	–	–	–
CCc1ccccc1NC(=O)CC1NC(=O)CS1 (stereo not drawn)	> 100	–	> 100	> 100	> 100	> 100	> 100	> 100	–	–	–	–	–	–	–	–	–	–	–	–
CN1CCCC1c1cccnc1.O=C(O)c1ccccc1O.O=C([O-])c1ccccc1[OH2+].O=C([O-])c1ccccc1[OH2+].[Mn+2] (stereo not drawn)	–	> 100	> 100	> 100	> 100	> 100	> 100	> 100	54.3	> 100	–	98	> 100	56.7	> 100	> 100	> 100	> 100	> 100	> 100
Cc1ccc(NC(=O)/C(C#N)=C/c2ccccc2)c(C)c1	> 100	> 100	> 100	> 100	> 100	> 100	> 100	–	–	–	–	–	–	–	–	–	–	–	–	–
N#CNC1=NC(N)C(c2nc3ccccc3[nH]2)=C(CCCC(=O)Nc2cccc([N+](=O)[O-])c2)N1 (stereo not drawn)	> 100	> 100	> 100	> 100	> 100	> 100	> 100	> 100	–	–	–	–	–	–	–	–	–	–	–	–
O=[N+]([O-])/C=C/c1ccc(Cl)cc1Cl	37.4	21.8	–	27.4	24.4	31.3	–	–	–	–	–	–	–	–	–	–	–	–	–	–
CC(=O)Nc1ccc(S(=O)(=O)NN(C)S(=O)(=O)c2ccc(C)cc2)cc1	> 100	> 100	> 100	> 100	> 100	> 100	> 100	–	–	–	–	–	–	–	–	–	–	–	–	–
N#CC1C(N)=NNC12Nc1ccccc1S2 (stereo not drawn)	> 100	–	–	44.4	40.5	30.3	> 100	37.6	18.7	57.4	36.6	–	–	13.6	17.4	71.7	12.2	25.9	18.4	15.3
Cc1ccc(Cl)cc1-n1c(C)nc2c(cnn2-c2ccnc3c(C(F)(F)F)cccc23)c1=O	> 100	> 100	> 100	> 100	–	> 100	> 100	> 100	> 100	> 100	> 100	> 100	> 100	> 100	> 100	> 100	> 100	> 100	> 100	–
C=CC(=O)N[C@@H](/C=C/C(=O)OCC)Cc1ccc(-c2cc(Cl)cc(Cl)c2)cc1	32.8	41.9	35.3	–	80.6	25.2	63.1	35.6	11.9	43.8	11.2	12.8	7.96	–	16.3	78.4	4.6	19.4	14.2	17
Cn1nc(-c2ccccc2)c(C(=O)/C=C/c2ccc(Cl)cc2)c(N2CCOCC2)c1=O	12.2	15.1	6.79	–	15.7	10.7	19.7	61.7	–	–	–	–	–	–	–	–	–	–	–	–
CC1CCC2C(CN(CC3=C(C(F)(F)F)OC4OC5(C)CCC6C(C)CCC3C46OO5)CC3=C(C(F)(F)F)OC4OC5(C)CCC6C(C)CCC3C46OO5)=C(C(F)(F)F)OC3OC4(C)CCC1C32OO4 (stereo not drawn)	30	> 100	22.4	> 100	59.7	–	> 100	–	13.1	34.1	12.9	25.1	2.45	27.1	17.9	61.4	–	35.2	–	22.2
CC(N)CC(=O)O (stereo not drawn)	> 5000	> 5000	> 5000	> 5000	> 5000	> 5000	> 5000	–	–	–	–	–	–	–	–	–	–	–	–	–
CC1CCC2(C)C(CC=C(C=O)C2(O)C=O)C12CO2 (stereo not drawn)	7.7	8.03	2.85	3.79	6.29	4.02	10.2	7.47	–	–	–	–	–	–	–	–	–	–	–	–
C=CC[N+]1(CC)CCN=C1CCCCCCCCCCCCCCCCC (stereo not drawn)	1.46	1.24	0.836	2.16	1.28	2.3	2.33	–	–	–	0.429	0.375	0.205	0.731	0.432	1.57	0.935	1.12	–	0.35
O=C(CO)C1CC2C=CC1C2 (stereo not drawn)	> 100	> 100	> 100	> 100	> 100	> 100	> 100	> 100	–	–	–	–	–	–	–	–	–	–	–	–

Structure (SMILES)	TGI (NCI-H460 lung) [µM]	TGI (HT29 colon) [µM]	TGI (RXF 393 renal) [µM]	TGI (UACC-257 melanoma) [µM]	TGI (M14 melanoma) [µM]	TGI (UACC-62 melanoma) [µM]	TGI (SK-OV-3 ovarian) [µM]	TGI (LOX IMVI melanoma) [µM]	GI50 (BT-549 breast) [µM]	TGI (BT-549 breast) [µM]	GI50 (NCI-H460 lung) [µM]	GI50 (HT29 colon) [µM]	GI50 (RXF 393 renal) [µM]	GI50 (UACC-257 melanoma) [µM]	GI50 (HS 578T breast) [µM]	TGI (HS 578T breast) [µM]	GI50 (UACC-62 melanoma) [µM]	GI50 (SK-OV-3 ovarian) [µM]	GI50 (LOX IMVI melanoma) [µM]	GI50 (M14 melanoma) [µM]
C=C1C=CC2(Br)OC3CC(C)(Cl)C(Br)CC13C2(C)C (stereo not drawn)	46	36.5	–	42.8	53.2	34.3	> 100	33.8	–	–	–	–	–	–	–	–	–	–	–	–
Nc1nc2ccccc2c2c1S(=O)(=O)c1ccc(Cl)cc1C2=O	6.63	5.88	2.05	> 50	35.4	24.8	44.8	1.84	1.91	> 50	1.68	1.63	0.784	1.96	–	–	1.68	6.9	0.873	2.45
CC(=O)CC(=O)CCC(=O)Nc1cccc(C(F)(F)F)c1	> 100	> 100	–	> 100	> 100	> 100	> 100	> 100	–	–	–	–	–	–	–	–	–	–	–	–
Cc1nnc(N/N=C(/C(=O)C(C#N)c2ccc(Cl)cc2)C(C#N)c2ccc(Cl)cc2)n1N (stereo not drawn)	39.3	61.9	31.6	33.1	38.7	–	–	35.4	–	–	–	–	–	–	–	–	–	–	–	–
CC(=O)[CH-]C(C)=O.CC(=O)[CH-]C(C)=O.CC(=O)[CH-]C(C)=O.[Ga+3]	> 100	–	> 100	–	> 100	> 100	–	> 100	–	–	> 100	–	> 100	–	–	–	> 100	–	32.7	> 100
C=CCN(CC=C)C(=O)[C@H](CC)[C@@H]1CC[C@@H](C)[C@@H]([C@H](C)[C@@H](O)[C@@H](C)C(=O)[C@H](CC)C2O[C@]3(C=C[C@@H](O)[C@]4(CC[C@@](C)([C@H]5CC[C@](O)(CC)[C@H](C)O5)O4)O3)[C@H](C)C[C@@H]2C)O1 (stereo partly drawn)	4.35	16.1	3.47	8.25	–	4.09	> 100	3.22	3.03	12.3	1.97	3.12	1.57	2.35	2.22	6.27	1.66	3.51	1.52	–
CC1=NNC(=S)NCCCN2CCN(CCCNC(=S)NN=C(C)C=NNC(=S)NCCCN3CCN(CCCNC(=S)NN=C1)CC3)CC2	–	> 100	> 100	> 100	> 100	> 100	> 100	> 100	–	> 100	–	–	–	–	–	> 100	–	–	–	–
c1ccc(-c2csc3ncn4cnnc4c23)cc1	–	> 100	–	–	> 100	> 100	> 100	> 100	–	–	–	–	–	–	–	–	–	–	–	–
COc1cc(/C=C/C(=O)O[C@H]2[C@H](O[C@@H]3O[C@@H](C)[C@H](O)[C@@H](O)[C@H]3O)[C@@H](O)[C@H](OCCc3ccc(O)c(O)c3)O[C@@H]2COC2OCC(O)(CO)C2O)ccc1O (stereo partly drawn)	> 100	–	> 100	> 100	> 100	> 100	> 100	53.6	23.8	41.8	> 100	–	> 100	> 100	67.6	> 100	> 100	> 100	21.6	> 100
Cc1ccc(-n2c(-c3cc4c([nH]c5ccccc54)c(-c4cccc(O)c4)n3)n[nH]c2=S)cc1	10.2	3.68	–	7.11	3.71	2.57	4.44	1.97	–	–	0.393	1.36	–	2.03	1.74	36.2	0.491	1.18	0.461	1.1
N#C/C(=C1\OC(=N)C(c2ccc(Cl)cc2Cl)C1=O)c1ccc(Cl)cc1Cl (stereo not drawn)	–	> 100	> 100	> 100	> 100	> 100	> 100	> 100	–	–	–	–	–	–	–	–	–	–	–	–
Clc1ccc([I+]c2ccc(Cl)cc2Cl)c(Cl)c1	5.39	3.26	–	5.8	6.07	–	12	3.36	2.02	4.06	2.35	1.78	–	2.38	2.48	8.81	–	4.17	1.77	2.58
O=C1/C(=C/c2ccccc2O)N=C(c2ccccc2)N1c1cc(C(F)(F)F)ccc1Cl	> 100	> 100	81.3	> 100	> 100	> 100	> 100	> 100	–	–	> 100	> 100	29.9	> 100	22.8	60.3	69.3	43.7	40.8	62.5
CC(C)(C)c1cc(C(=O)O)c2c(c1)C(=O)OC2(c1ccccc1)c1ccccc1C(=O)O (stereo not drawn)	> 100	> 100	> 100	> 100	> 100	> 100	–	> 100	> 100	> 100	–	–	–	–	> 100	> 100	–	–	–	–
O=C(c1c(O)cc(O)cc1O)C1Cc2ccccc21 (stereo not drawn)	> 100	> 100	> 100	> 100	> 100	> 100	> 100	> 100	–	–	–	–	–	–	–	–	–	–	–	–
CC(=O)OCC(CC[CH2][Sn]([Cl])([Cl])[c]1ccccc1)OC(C)=O (stereo not drawn)	38.8	94.9	34.2	95.4	29.7	25.6	44.2	31.6	–	–	19.6	32.3	18.5	32.2	–	–	12.6	21.1	16.8	16.2
C[C@H]1CN(C2COC2)CCN1c1ccc(Nc2cc(-c3ccnc(N4CCn5c(cc6c5CC(C)(C)C6)C4=O)c3CO)cn(C)c2=O)nc1	> 100	> 100	> 100	58.1	–	82.3	> 100	> 100	17.7	55.1	61.1	23.8	40.6	27.6	27.7	> 100	23.2	> 100	29.8	–
